Each structure is given as a SMILES string.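 Where inhibition never reached the appropriate level, the endpoint shown equals the highest concentration tested. Otherwise, values were interpolated linearly from a five-concentration, 48-hour dose response in 96-well plates. GI50 = concentration required for 50% inhibition of growth.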 Activity calls are given as the source filed them. Rule as the data show it: active = GI50 up to about 1.1 µM and inactive = higher.

Test systems include SK-MEL-5; SNB-75; TK-10; CCRF-CEM; UACC-257; SW-620; RXF 393; A498; SF-268; SF-539; HOP-92; UO-31; SF-295; KM12; SK-MEL-2; OVCAR-5; MDA-MB-231; NCI/ADR-RES.
Holding throughout (assay): inhibition of tumour cell growth, NCI panel, 48 h

With `CC(Oc1ccc2cc(C(=O)c3ccccc3)c(=O)oc2c1)C(=O)O` (stereo not drawn), the GI50 in the assay with SK-MEL-5, in the assay on SNB-75, in the assay with TK-10, in the assay on CCRF-CEM, with UACC-257 and with SW-620 was > 100 µM (inactive) throughout. Moreover, the GI50 in the assay with RXF 393, with A498, in the assay on SF-268, with SF-539, in the assay on HOP-92 and in the assay with UO-31 was > 100 µM (inactive) each time. The GI50 in the assay on SF-295 and in the assay with KM12 was > 100 µM (inactive) each time.

Consider `CC(C)(C)C#C[P+](c1ccccc1)(c1ccccc1)c1ccccc1`, for which the GI50 was 0.187 µM (active) with SK-MEL-5; 0.0348 µM (active) in the assay on SNB-75; 1.43 µM (inactive) in the assay with TK-10; 0.108 µM (active) in the assay with CCRF-CEM; 0.366 µM (active) in the assay with UACC-257; 0.152 µM (active) in the assay on SW-620. Moreover, the GI50 was 0.329 µM (active) with RXF 393; 0.409 µM (active) in the assay on SK-MEL-2; 0.23 µM (active) with A498; 1.15 µM (inactive) with OVCAR-5; 0.203 µM (active) in the assay on SF-268; 0.373 µM (active) in the assay with SF-539. For the same molecule, the GI50 with HOP-92 is 0.194 µM (active); in the assay on UO-31 it was 1.04 µM (active); in the assay with SF-295, 0.292 µM (active); in the assay on KM12, 0.238 µM (active).

Consider `Cc1ccc(NC(=O)CCC(=O)C(C#N)c2ccc(Cl)cc2)cc1C` (stereo not drawn), for which the GI50 with SK-MEL-5, with SNB-75, in the assay with TK-10, in the assay on CCRF-CEM, in the assay with UACC-257 and in the assay on SW-620 was > 100 µM (inactive) in each case. Further, the GI50 in the assay on RXF 393, with SK-MEL-2, in the assay with A498, in the assay on OVCAR-5, in the assay with SF-268 and in the assay with SF-539 was > 100 µM (inactive) throughout. For the same molecule, the GI50 in the assay with HOP-92, with UO-31, in the assay on SF-295 and with KM12 was > 100 µM (inactive) each time.

With `Cc1nnc(N/N=C(/C(=O)C(C#N)c2ccccc2)C(C#N)c2ccccc2)n1N` (stereo not drawn), the GI50 in the assay on SK-MEL-5 was 18.3 µM (inactive); in the assay on SNB-75, 16.4 µM (inactive); in the assay with TK-10, > 60.3 µM (inactive); in the assay on CCRF-CEM, 2.12 µM (inactive); with UACC-257, 5.26 µM (inactive); in the assay on SW-620 it was 1.56 µM (inactive). For the same molecule, the GI50 in the assay on RXF 393 was 17 µM (inactive); in the assay with SK-MEL-2, 5.25 µM (inactive); with A498 it was 7.98 µM (inactive); in the assay on OVCAR-5, > 42.9 µM (inactive); in the assay with SF-268, 31 µM (inactive); in the assay on SF-539, > 48.6 µM (inactive). The GI50 is > 100 µM (inactive) with HOP-92, 26.4 µM (inactive) with UO-31, 3.75 µM (inactive) in the assay with SF-295 and 28.4 µM (inactive) in the assay with KM12.

On to `COc1ccc(Cc2nc3ccccc3s2)cc1OC`, for which the GI50 in the assay on SK-MEL-5 was 16.1 µM (inactive); in the assay on SNB-75 it was 18.8 µM (inactive); with TK-10, 36.2 µM (inactive); in the assay on CCRF-CEM it was 14.8 µM (inactive); in the assay with UACC-257, 18.1 µM (inactive); with SW-620 it was 18.5 µM (inactive). For the same molecule, the GI50 is 19.6 µM (inactive) in the assay with RXF 393; 20.3 µM (inactive) in the assay with SK-MEL-2; 23.7 µM (inactive) in the assay on A498; 22.3 µM (inactive) in the assay with OVCAR-5; 15.8 µM (inactive) in the assay on SF-268; 17.3 µM (inactive) with SF-539. Also, the GI50 was 17.7 µM (inactive) in the assay with HOP-92, 16.4 µM (inactive) in the assay on UO-31, 15.1 µM (inactive) in the assay on SF-295 and 17.4 µM (inactive) in the assay with KM12.

`CC1CC(C)C(C(O)CC2CC(=O)N(c3ccccc3)C(=O)C2)C(O)C1` (stereo not drawn): the GI50 in the assay with SNB-75, with TK-10, in the assay with CCRF-CEM, in the assay with UACC-257, with SW-620 and in the assay on RXF 393 was > 100 µM (inactive) throughout. Besides, the GI50 with A498, with OVCAR-5, in the assay with SF-268, with SF-539, in the assay on HOP-92 and in the assay on UO-31 was > 100 µM (inactive) each time. Moreover, the GI50 with SF-295 and in the assay on KM12 was > 100 µM (inactive) in each case.

Take `CN(C)/C(F)=P\C(F)(F)F` (stereo not drawn): the GI50 in the assay on SK-MEL-5, with SNB-75, with TK-10, in the assay with CCRF-CEM, with UACC-257 and in the assay on SW-620 was > 100 µM (inactive) each time. Besides, the GI50 in the assay on RXF 393, in the assay with SK-MEL-2, in the assay with A498, in the assay with OVCAR-5, with SF-268 and in the assay with SF-539 was > 100 µM (inactive) throughout. Besides, the GI50 with HOP-92, in the assay with UO-31, in the assay with SF-295 and with KM12 was > 100 µM (inactive) each time.

For the molecule `COC(=O)c1c(-c2cc(OC)c(OC)c(OC)c2)oc2ccccc2c1=O`, the GI50 was 59.7 µM (inactive) in the assay on SK-MEL-5; 58.7 µM (inactive) in the assay with SNB-75; 42.6 µM (inactive) in the assay with TK-10; 36.7 µM (inactive) in the assay on CCRF-CEM; > 100 µM (inactive) in the assay on UACC-257; > 100 µM (inactive) with SW-620. The GI50 in the assay with RXF 393 is 53.6 µM (inactive); with SK-MEL-2 it was > 100 µM (inactive); in the assay on A498 it was > 100 µM (inactive); in the assay on OVCAR-5, > 100 µM (inactive); in the assay with SF-539, > 100 µM (inactive); with HOP-92, 96.6 µM (inactive). The GI50 in the assay on UO-31 was 66.4 µM (inactive); in the assay with SF-295, > 100 µM (inactive); in the assay on KM12, > 100 µM (inactive).

As for `COc1ccc(-c2ncn(C[Si](C)(C)C)c2-c2ccc(OC)cc2)cc1`, the GI50 is 2.54 µM (inactive) in the assay on SK-MEL-5; 13.1 µM (inactive) in the assay with SNB-75; 7.24 µM (inactive) in the assay with TK-10; 4.93 µM (inactive) in the assay on UACC-257; 3.05 µM (inactive) in the assay on SW-620; 12.9 µM (inactive) in the assay on MDA-MB-231. Further, the GI50 in the assay with RXF 393 is 6.25 µM (inactive); with SK-MEL-2 it was 7.08 µM (inactive); with OVCAR-5 it was 5.02 µM (inactive); in the assay on SF-268, 12.1 µM (inactive); in the assay on SF-539, 10.5 µM (inactive); in the assay with HOP-92 it was 4.7 µM (inactive). For the same molecule, the GI50 in the assay on UO-31 was 2.28 µM (inactive); in the assay on SF-295, 4.24 µM (inactive); in the assay with KM12, 4.92 µM (inactive); in the assay with NCI/ADR-RES it was 5.08 µM (inactive).

Consider `CC(C)(C)c1ccc2c(c1)S(=O)(=O)Nc1ccc(Cl)cc1NS(=O)(=O)c1cc(C(C)(C)C)ccc1OCCOCCOCCO2`, for which the GI50 in the assay on SK-MEL-5 was 28.1 µM (inactive); in the assay on SNB-75 it was 24 µM (inactive); with TK-10, 37.5 µM (inactive); in the assay with CCRF-CEM, > 100 µM (inactive); in the assay with UACC-257, 55.7 µM (inactive); in the assay with SW-620, 98.9 µM (inactive). Also, the GI50 in the assay with RXF 393 was 19.8 µM (inactive); with SK-MEL-2, 45.6 µM (inactive); in the assay on A498 it was > 100 µM (inactive); in the assay on OVCAR-5 it was > 100 µM (inactive); with SF-268 it was 31.1 µM (inactive); with SF-539, 23.5 µM (inactive). For the same molecule, the GI50 in the assay on HOP-92 is 18.5 µM (inactive); with UO-31, 53.5 µM (inactive); in the assay on SF-295, 21.6 µM (inactive); in the assay with KM12, 75 µM (inactive).

For `O=c1[nH]cc(C(F)(C(F)(F)F)C(F)(F)F)c(=O)[nH]1`, the GI50 in the assay on SK-MEL-5, with SNB-75, with TK-10, in the assay on CCRF-CEM, with UACC-257 and in the assay on SW-620 was > 100 µM (inactive) throughout. Besides, the GI50 in the assay on RXF 393, in the assay with SK-MEL-2, in the assay with A498, in the assay with OVCAR-5, in the assay with SF-268 and in the assay with SF-539 was > 100 µM (inactive) in each case. In addition, the GI50 in the assay on HOP-92, in the assay on UO-31, with SF-295 and in the assay with KM12 was > 100 µM (inactive) each time.

`COc1ccc2nc3c(c(NCCCN(C)C)c2c1)CCCC3`: the GI50 in the assay on SK-MEL-5 is 15.8 µM (inactive); with SNB-75, 13.2 µM (inactive); with TK-10, 26.1 µM (inactive); with CCRF-CEM it was 4.83 µM (inactive); in the assay with UACC-257 it was 17 µM (inactive); with SW-620 it was 10.7 µM (inactive). The GI50 in the assay with RXF 393 was 14.8 µM (inactive); in the assay on SK-MEL-2, 17.3 µM (inactive); in the assay with A498, 20.3 µM (inactive); with OVCAR-5, 13.5 µM (inactive); in the assay on SF-268, > 10 µM (inactive); in the assay with SF-539, 16.8 µM (inactive). In addition, the GI50 is 5.28 µM (inactive) with HOP-92, 16 µM (inactive) in the assay with UO-31, 14.6 µM (inactive) with SF-295 and 12.5 µM (inactive) in the assay on KM12.

With `CC(C)c1cc(OCC(O)CO)cc(C(C)C)c1` (stereo not drawn), the GI50 with SK-MEL-5, with SNB-75, in the assay on TK-10, in the assay on CCRF-CEM, in the assay with UACC-257 and in the assay on SW-620 was > 100 µM (inactive) each time. The GI50 in the assay with RXF 393, in the assay on SK-MEL-2, in the assay on A498, in the assay with OVCAR-5, in the assay on SF-268 and in the assay on SF-539 was > 100 µM (inactive) each time. Besides, the GI50 in the assay on HOP-92, in the assay on UO-31, in the assay on SF-295 and in the assay with KM12 was > 100 µM (inactive) throughout.

For the origin of these results see ChEMBL document CHEMBL1201862, “PubChem BioAssay data set” (2004).
